Columns and labels:
Assay type in all cases: in vivo
Veronica = assay: Post-emergence test/greenhouse; conditions: Table C, after three weeks
Procedure: (§1) To produce a suitable preparation of active compound, 1 part by weight of active compound is mixed with the stated amount of solvent, the stated amount of emulsifier is added and the concentrate is diluted with water to the desired concentration.
(§2) Test plants which have a height of 5-15 cm are sprayed with the preparation of active compound in such a way as to apply the particular amounts of active compound desired per unit area. After three weeks, the degree of damage to the plants is rated in % damage in comparison to the development of the untreated control.
(§3) 0%=no action (like intreated control)

Amaranthus [1] = assay: Post-emergence test/greenhouse; conditions: Table C, after three weeks
Procedure: as §1, §2, §3

Abuthilon [2] = assay: Post-emergence test/greenhouse; conditions: Table C, after three weeks
Procedure: as §1, §2, §3

Maize [3] = assay: Post-emergence test/greenhouse; conditions: Table C, after three weeks
Procedure: as §1, §2, §3

Wheat [4] = assay: Post-emergence test/greenhouse; conditions: Table C, after three weeks
Procedure: as §1, §2, §3

Solanum [5] = assay: Post-emergence test/greenhouse; conditions: Table C, after three weeks
Procedure: as §1, §2, §3

Chenopodium [6] = assay: Post-emergence test/greenhouse; conditions: Table C, after three weeks
Procedure: as §1, §2, §3

Amaranthus [7] = assay: Pre-emergence test/greenhouse; conditions: Table B, after three weeks
Procedure: as §1
(§4) Seeds of the test plants are sown in normal soil and, after 24 hours, watered with the preparation of active compound. It is expedient to keep constant the amount of water per unit area. The concentration of the active compound in the preparation is of no importance, only the amount of active compound applied per unit area being decisive. After three weeks, the degree of damage to the plants is rated in % damage in comparison to the development of the untreated control. The figures denote:
(§5) 0%=no action (like untreated control)

Abuthilon [8] = assay: Pre-emergence test/greenhouse; conditions: Table B, after three weeks
Procedure: as §1, §4, §5

Matricaria = assay: Pre-emergence test/greenhouse; conditions: Table B, after three weeks
Procedure: as §1, §4, §5

Maize [9] = assay: Pre-emergence test/greenhouse; conditions: Table B, after three weeks
Procedure: as §1, §4, §5

Wheat [10] = assay: Pre-emergence test/greenhouse; conditions: Table B, after three weeks
Procedure: as §1, §4, §5

Solanum [11] = assay: Pre-emergence test/greenhouse; conditions: Table B, after three weeks
Procedure: as §1, §4, §5

Portulaca = assay: Pre-emergence test/greenhouse; conditions: Table B, after three weeks
Procedure: as §1, §4, §5

Chenopodium [12] = assay: Pre-emergence test/greenhouse; conditions: Table B, after three weeks
Procedure: as §1, §4, §5

Compound	degree of damage, Amaranthus (Amaranthus [7]; 60 g/ha)	degree of damage, Abuthilon (Abuthilon [8]; 60 g/ha)	degree of damage, Matricaria (Matricaria; 60 g/ha)	degree of damage, Maize (Maize [9]; 60 g/ha)	degree of damage, Wheat (Wheat [10]; 60 g/ha)	degree of damage, Solanum (Solanum [11]; 60 g/ha)	degree of damage, Portulaca (Portulaca; 60 g/ha)	degree of damage, Chenopodium (Chenopodium [12]; 60 g/ha)	degree of damage, Veronica (Veronica; 15 g/ha)	degree of damage, Amaranthus (Amaranthus [1]; 15 g/ha)	degree of damage, Abuthilon (Abuthilon [2]; 15 g/ha)	degree of damage, Maize (Maize [3]; 15 g/ha)	degree of damage, Wheat (Wheat [4]; 15 g/ha)	degree of damage, Solanum (Solanum [5]; 15 g/ha)	degree of damage, Chenopodium (Chenopodium [6]; 15 g/ha)	further results
CCS(=O)(=O)Nc1cc(N2C(=O)C(C)=C(C)C2=O)c(F)cc1C(N)=S [Example 22]																degree of damage, Veronica (Veronica; 30 g/ha): 20%; degree of damage, Amaranthus (Amaranthus [1]; 30 g/ha): 100%; degree of damage, Abuthilon (Abuthilon [2]; 30 g/ha): 100%; degree of damage, Maize (Maize [3]; 30 g/ha): 0%; degree of damage, Wheat (Wheat [4]; 30 g/ha): 15%; degree of damage, Solanum (Solanum [5]; 30 g/ha): 100%; degree of damage, Chenopodium (Chenopodium [6]; 30 g/ha): 40%; degree of damage, Amaranthus (Amaranthus [7]; 250 g/ha): 100%; degree of damage, Abuthilon (Abuthilon [8]; 250 g/ha): 100%; degree of damage, Matricaria (Matricaria; 250 g/ha): 100%; degree of damage, Maize (Maize [9]; 250 g/ha): 20%; degree of damage, Wheat (Wheat [10]; 250 g/ha): 0%; degree of damage, Solanum (Solanum [11]; 250 g/ha): 100%; degree of damage, Portulaca (Portulaca; 250 g/ha): 95%; degree of damage, Chenopodium (Chenopodium [12]; 250 g/ha): 100%
CCS(=O)(=O)Nc1cc(N2C(=O)C3=C(CCCC3)C2=O)c(F)cc1C(N)=S [Example 23]	70%	95%	100%	0%	0%	70%	95%	95%								degree of damage, Veronica (Veronica; 30 g/ha): 100%; degree of damage, Abuthilon (Abuthilon [2]; 30 g/ha): 95%; degree of damage, Maize (Maize [3]; 30 g/ha): 50%; degree of damage, Wheat (Wheat [4]; 30 g/ha): 0%; degree of damage, Solanum (Solanum [5]; 30 g/ha): 100%; degree of damage, Chenopodium (Chenopodium [6]; 30 g/ha): 90%
CC(C)Oc1cc(-n2nc3n(c2=O)CCCC3)c(F)cc1C(N)=S [Example 17]																degree of damage, Veronica (Veronica; 8 g/ha): 100%; degree of damage, Amaranthus (Amaranthus [1]; 8 g/ha): 100%; degree of damage, Abuthilon (Abuthilon [2]; 8 g/ha): 100%; degree of damage, Maize (Maize [3]; 8 g/ha): 10%; degree of damage, Wheat (Wheat [4]; 8 g/ha): 10%; degree of damage, Solanum (Solanum [5]; 8 g/ha): 100%; degree of damage, Chenopodium (Chenopodium [6]; 8 g/ha): 95%; degree of damage, Amaranthus (Amaranthus [7]; 30 g/ha): 100%; degree of damage, Abuthilon (Abuthilon [8]; 30 g/ha): 100%; degree of damage, Matricaria (Matricaria; 30 g/ha): 100%; degree of damage, Maize (Maize [9]; 30 g/ha): 0%; degree of damage, Wheat (Wheat [10]; 30 g/ha): 0%; degree of damage, Solanum (Solanum [11]; 30 g/ha): 100%; degree of damage, Portulaca (Portulaca; 30 g/ha): 100%; degree of damage, Chenopodium (Chenopodium [12]; 30 g/ha): 100%
CCS(=O)(=O)Nc1cc(-n2c(=O)cc(C(F)(F)F)n(C)c2=S)c(F)cc1C(N)=S [Example 21]	100%	100%	100%	0%	0%	100%	100%	100%								degree of damage, Veronica (Veronica; 4 g/ha): 100%; degree of damage, Amaranthus (Amaranthus [1]; 4 g/ha): 100%; degree of damage, Abuthilon (Abuthilon [2]; 4 g/ha): 90%; degree of damage, Maize (Maize [3]; 4 g/ha): 60%; degree of damage, Wheat (Wheat [4]; 4 g/ha): 5%; degree of damage, Solanum (Solanum [5]; 4 g/ha): 100%; degree of damage, Chenopodium (Chenopodium [6]; 4 g/ha): 70%
CC(C)Oc1cc(N2C(=O)C3CCCCN3C2=O)c(F)cc1C(N)=S (stereo not drawn) [Example 46]	100%	100%	100%	70%	0%	100%	100%	100%								degree of damage, Veronica (Veronica; 8 g/ha): 100%; degree of damage, Amaranthus (Amaranthus [1]; 8 g/ha): 100%; degree of damage, Abuthilon (Abuthilon [2]; 8 g/ha): 100%; degree of damage, Maize (Maize [3]; 8 g/ha): 20%; degree of damage, Wheat (Wheat [4]; 8 g/ha): 15%; degree of damage, Solanum (Solanum [5]; 8 g/ha): 100%; degree of damage, Chenopodium (Chenopodium [6]; 8 g/ha): 95%
CCS(=O)(=O)Nc1cc(-n2nc(C3CC3)n(C)c2=O)c(F)cc1C(N)=S [Example 13]	100%	100%	70%	0%	0%	100%	90%	100%	90%	100%	95%	30%	0%	100%	80%	
Cn1c(C(F)(F)F)cc(=O)n(-c2cc(NS(C)(=O)=O)c(C(N)=S)cc2F)c1=S [Example 26]	80%	100%	100%	0%	0%	90%	100%	100%	100%	90%	50%	30%	0%	50%	50%	
CCOc1cc(-n2nc3n(c2=O)CCCC3)c(F)cc1C(N)=S [Example 12]	70%	70%	95%	0%	20%	70%	95%	100%								degree of damage, Veronica (Veronica; 8 g/ha): 100%; degree of damage, Amaranthus (Amaranthus [1]; 8 g/ha): 100%; degree of damage, Abuthilon (Abuthilon [2]; 8 g/ha): 100%; degree of damage, Maize (Maize [3]; 8 g/ha): 30%; degree of damage, Wheat (Wheat [4]; 8 g/ha): 10%; degree of damage, Solanum (Solanum [5]; 8 g/ha): 100%; degree of damage, Chenopodium (Chenopodium [6]; 8 g/ha): 95%
Cn1c(C(F)(F)F)nn(-c2cc(NS(C)(=O)=O)c(C(N)=S)cc2F)c1=S [Example 34]	100%	100%	100%	0%	0%	100%	100%	100%	100%	100%	100%	30%	0%	100%	100%	
COCCOCCOc1cc(-n2nc(C)n(C(F)F)c2=O)c(F)cc1C(N)=S [Example 51]									100%	100%	100%	60%	15%	100%	70%	degree of damage, Abuthilon (Abuthilon [8]; 30 g/ha): 100%; degree of damage, Matricaria (Matricaria; 30 g/ha): 95%; degree of damage, Maize (Maize [9]; 30 g/ha): 20%; degree of damage, Wheat (Wheat [10]; 30 g/ha): 0%; degree of damage, Solanum (Solanum [11]; 30 g/ha): 100%; degree of damage, Portulaca (Portulaca; 30 g/ha): 100%; degree of damage, Chenopodium (Chenopodium [12]; 30 g/ha): 100%
C#CC(C)Oc1cc(-n2nc(C(F)(F)F)n(C)c2=O)c(F)cc1C(N)=S (stereo not drawn) [Example 32]																degree of damage, Veronica (Veronica; 4 g/ha): 100%; degree of damage, Amaranthus (Amaranthus [1]; 4 g/ha): 100%; degree of damage, Abuthilon (Abuthilon [2]; 4 g/ha): 100%; degree of damage, Maize (Maize [3]; 4 g/ha): 30%; degree of damage, Wheat (Wheat [4]; 4 g/ha): 15%; degree of damage, Solanum (Solanum [5]; 4 g/ha): 100%; degree of damage, Chenopodium (Chenopodium [6]; 4 g/ha): 95%; degree of damage, Amaranthus (Amaranthus [7]; 30 g/ha): 100%; degree of damage, Matricaria (Matricaria; 30 g/ha): 100%; degree of damage, Maize (Maize [9]; 30 g/ha): 0%; degree of damage, Wheat (Wheat [10]; 30 g/ha): 10%; degree of damage, Solanum (Solanum [11]; 30 g/ha): 100%; degree of damage, Portulaca (Portulaca; 30 g/ha): 95%; degree of damage, Chenopodium (Chenopodium [12]; 30 g/ha): 100%
